For 22 compounds, Emax and EC50 results are on record in patent US10065956B2, “Ethynyl derivatives” (Hoffmann-La Roche Inc., priority 2015, dated 2018).

In general, EC50 refers to the concentration that produces a half-maximal response.

This experiment addresses T1, human mGlu4 receptor (Homo sapiens, UniProt Q14833).
T1 construct: expressed in transfected cells; host or cells: monoclonal HEK-293 cell line, stably transfected
Briefly: Ca2+ mobilization in vitro assay on recombinant human mGlu4 expressed in HEK293 cells (PAM, L-AP4 at EC20). The experiment is classed as cell-based. Conditions: for Emax: HEK293, maximal response in % of the maximal stimulatory effect obtained with saturating concentrations of L-AP4, read-out: Eff. (%); for EC50: HEK293 cells expressing human mGlu4, L-AP4 added at EC20. The text has this: FIG. 1: Illustration of the experimental outline for mGlu4 PAM Ca2+ mobilization screening assay and the determination of EC50 and % Emax values.
Determination of EC50 Values Using a Ca2+ Mobilization In Vitro Assay on Recombinant Human mGlu4 Expressed in HEK293 Cells:
A monoclonal HEK-293 cell line stably transfected with a cDNA encoding for the human mGlu4 receptor was generated; for the work with mGlu4 Positive Allosteric Modulators (PAMs), a cell line with low receptor expression levels and low constitutive receptor activity was selected to allow the differentiation of agonistic versus PAM activity. Cells were cultured according to standard protocols (Freshney, 2000) in Dulbecco's Modified Eagle Medium with high glucose supplemented with 1 mM glutamine, 10% (vol/vol) heat-inactivated bovine calf serum, Penicillin/Streptomycin, 50 μg/ml hygromycin and 15 μg/ml blasticidin (all cell culture reagents and antibiotics from Invitrogen, Basel, Switzerland).
About 24 hrs before an experiment, 5×10^4 cells/well were seeded in poly-D-lysine coated, black/clear-bottomed 96-well plates. The cells were loaded with 2.5 μM Fluo-4AM in loading buffer (1×HBSS, 20 mM HEPES) for 1 hr at 37° C. and washed five times with loading buffer. The cells were transferred into a Functional Drug Screening System 7000 (Hamamatsu, Paris, France), and 11 half logarithmic serial dilutions of test compound at 37° C. were added and the cells were incubated for 10-30 min. with on-line recording of fluorescence. Following this pre-incubation step, the agonist (2S)-2-amino-4-phosphonobutanoic acid (L-AP4) was added to the cells at a concentration corresponding to EC20 with on-line recording of fluorescence; in order to account for day-to-day variations in the responsiveness of cells, the EC20 of L-AP4 was determined immediately ahead of each experiment by recording of a full dose-response curve of L-AP4. Responses were measured as peak increase in fluorescence minus basal (i.e. fluorescence without addition of L-AP4), normalized to the maximal stimulatory effect obtained with saturating concentrations of L-AP4. Graphs were plotted with the % maximal stimulatory using XLfit, a curve fitting program that iteratively plots the data using Levenburg Marquardt algorithm. The single site competition analysis equation used was y=A+((B−A)/(1+((x/C)D))), where y is the % maximal stimulatory effect, A is the minimum y, B is the maximum y, C is the EC50, x is the log 10 of the concentration of the competing compound and D is the slope of the curve (the Hill Coefficient). From these curves the EC50 (drug concentration at which 50% of the maximal receptor activation was achieved), the Hill coefficient as well as the maximal response in % of the maximal stimulatory effect obtained with saturating concentrations of L-AP4 were calculated (see FIG. 1). […] A depression of the signal observed after addition of the EC20 concentration of L-AP4 was indicative of an inhibitory activity of the test compound.

T1 sequence (Q14833 33-912): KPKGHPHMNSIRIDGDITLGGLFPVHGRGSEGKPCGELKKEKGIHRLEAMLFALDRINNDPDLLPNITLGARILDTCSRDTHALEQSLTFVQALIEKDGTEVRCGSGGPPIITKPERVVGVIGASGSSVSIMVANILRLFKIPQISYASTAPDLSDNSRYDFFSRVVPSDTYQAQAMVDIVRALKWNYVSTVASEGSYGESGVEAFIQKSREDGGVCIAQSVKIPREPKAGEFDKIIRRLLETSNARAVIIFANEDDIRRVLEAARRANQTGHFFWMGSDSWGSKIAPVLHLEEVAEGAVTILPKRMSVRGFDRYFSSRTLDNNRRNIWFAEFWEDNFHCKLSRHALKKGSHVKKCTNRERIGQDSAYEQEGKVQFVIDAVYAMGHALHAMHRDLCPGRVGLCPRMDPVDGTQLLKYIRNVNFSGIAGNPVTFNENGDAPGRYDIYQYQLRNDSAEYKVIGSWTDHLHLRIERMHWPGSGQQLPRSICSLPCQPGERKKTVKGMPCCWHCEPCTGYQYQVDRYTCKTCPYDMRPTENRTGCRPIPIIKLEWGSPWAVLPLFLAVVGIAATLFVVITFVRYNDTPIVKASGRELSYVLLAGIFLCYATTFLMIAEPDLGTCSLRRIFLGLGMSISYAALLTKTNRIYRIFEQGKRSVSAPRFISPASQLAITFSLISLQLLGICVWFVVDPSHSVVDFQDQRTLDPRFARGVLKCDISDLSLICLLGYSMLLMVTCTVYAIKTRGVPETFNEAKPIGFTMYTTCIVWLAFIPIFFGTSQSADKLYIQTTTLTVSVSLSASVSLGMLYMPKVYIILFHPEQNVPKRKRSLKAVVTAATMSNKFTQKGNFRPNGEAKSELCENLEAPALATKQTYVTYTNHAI

For `CCn1cc([C@]2(C)CC(=O)N(c3c(F)cc(C#Cc4ccccc4)cc3F)C(=O)N2C)cn1` [Example 13, (6S)-3-[2,6-Difluoro-4-(2-phenylethynyl)phenyl]-6-(1-ethylpyrazol-4-yl)-1,6-dimethyl-hexahydropyrimidine-2,4-dione], the Emax worked out at 115% and the EC50 is 64 nM.
For `CN1C(=O)N(c2c(F)cc(C#Cc3ccccc3F)cc2F)C(=O)C[C@@]1(C)c1cn[nH]c1` [Example 53, (6S)-3-[2,6-Difluoro-4-[2-(2-fluorophenyl)ethynyl]phenyl]-1,6-dimethyl-6-(1H-pyrazol-4-yl)hexahydropyrimidine-2,4-dione] the same measures were 145% and 17 nM.
For `CN1C(=O)N(c2c(F)cc(C#Cc3cnsc3)cc2F)C(=O)C[C@@]1(C)c1cnn(C)c1` [Example 25, (6S)-3-[2,6-Difluoro-4-(2-isothiazol-4-ylethynyl)phenyl]-1,6-dimethyl-6-(1-methylpyrazol-4-yl)hexahydropyrimidine-2,4-dione] the same measures were 149% and 45 nM.
For `CN1C(=O)N(c2c(F)cc(C#Cc3ccccc3)cc2F)C(=O)C[C@@]1(C)c1ccn(CCO)n1` [Example 46, (S)-3-(2,6-Difluoro-4-(phenylethynyl)phenyl)-6-(1-(2-hydroxyethyl)-1H-pyrazol-3-yl)-1,6-dimethyldihydropyrimidine-2,4(1H,3H)-dione] the same measures were 156% and 97 nM.
Consider `CN1C(=O)N(c2c(F)cc(C#Cc3ccccc3)cc2F)C(=O)C[C@@]1(C)c1ccon1` [Example 40, (6S)-3-[2,6-Difluoro-4-(2-phenylethynyl)phenyl]-6-isoxazol-3-yl-1,6-dimethyl-hexahydropyrimidine-2,4-dione], for which the Emax was 142% and the EC50 is 37 nM.
On to `CN1C(=O)N(c2c(F)cc(C#Cc3ccccc3)cc2F)C(=O)C[C@@]1(C)c1nn(C)c2ncccc12` [Example 17, (6S)-3-[2,6-Difluoro-4-(2-phenylethynyl)phenyl]-1,6-dimethyl-6-(1-methylpyrazolo[3,4-b]pyridin-3-yl)hexahydropyrimidine-2,4-dione], for which the Emax was 154% and the EC50 was 126 nM.
With `CN1C(=O)N(c2c(F)cc(C#Cc3ccccc3)cc2F)C(=O)C[C@@]1(C)c1cnn(CCCO)c1` [Example 22, (6S)-3-[2,6-Difluoro-4-(2-phenylethynyl)phenyl]-6-[1-(3-hydroxypropyl)pyrazol-4-yl]-1,6-dimethyl-hexahydropyrimidine-2,4-dione], the Emax is 143% and the EC50 was determined as 56 nM.
For `Cc1nc(C2(C)CC(=O)N(c3c(F)cc(C#Cc4ccccc4)cc3F)C(=O)N2C)cs1` (racemic) [Example 3, (6RS)-3-[2,6-Difluoro-4-(2-phenylethynyl)phenyl]-1,6-dimethyl-6-(2-methylthiazol-4-yl)hexahydropyrimidine-2,4-dione], the Emax turned out to be 138% and the EC50 was found to be 94 nM.
For `CN1C(=O)N(c2c(F)cc(C#Cc3ccc(F)cc3)cc2F)C(=O)C[C@@]1(C)c1cn[nH]c1` [Example 54, (6S)-3-[2,6-Difluoro-4-[2-(4-fluorophenyl)ethynyl]phenyl]-1,6-dimethyl-6-(1H-pyrazol-4-yl)hexahydropyrimidine-2,4-dione] the same measures were 135% and 27 nM.
For `CN1C(=O)N(c2c(F)cc(C#Cc3ccccc3)cc2F)C(=O)C[C@@]1(C)c1cnn(C)c1` [Example 6, (6S)-3-[2,6-Difluoro-4-(2-phenylethynyl)phenyl]-1,6-dimethyl-6-(1-methylpyrazol-4-yl)hexahydropyrimidine-2,4-dione], the Emax amounted to 98% and the EC50 is 36 nM.
For `CC[C@@]1(c2cn[nH]c2)CC(=O)N(c2c(F)cc(C#Cc3ccccc3)cc2F)C(=O)N1C` [Example 45, (6S)-3-[2,6-Difluoro-4-(2-phenylethynyl)phenyl]-6-ethyl-1-methyl-6-(1H-pyrazol-4-yl)hexahydropyrimidine-2,4-dione] the same measures were 126% and 39 nM.
For `CN1C(=O)N(c2c(F)cc(C#Cc3cccnc3)cc2F)C(=O)C[C@@]1(C)c1cn[nH]c1` [Example 36, (6S)-3-[2,6-Difluoro-4-[2-(3-pyridyl)ethynyl]phenyl]-1,6-dimethyl-6-(1H-pyrazol-4-yl)hexahydropyrimidine-2,4-dione] the same measures were 164% and 41 nM.
For `Cn1cc([C@]2(C)CC(=O)N(c3c(F)cc(C#Cc4ccccc4)cc3F)C(=O)N2)cn1` [Example 5, (6S)-3-[2,6-Difluoro-4-(2-phenylethynyl)phenyl]-6-methyl-6-(1-methylpyrazol-4-yl)hexahydropyrimidine-2,4-dione], the Emax amounted to 103% and the EC50 is 110 nM.
For `CN1C(=O)N(c2c(F)cc(C#Cc3ccc(F)cc3F)cc2F)C(=O)C[C@@]1(C)c1cn[nH]c1` [Example 56, (6S)-3-[4-[2-(2,4-Difluorophenyl)ethynyl]-2,6-difluoro-phenyl]-1,6-dimethyl-6-(1H-pyrazol-4-yl)hexahydropyrimidine-2,4-dione] the same measures were 143% and 44 nM.
In the case of `CN1C(=O)N(c2c(F)cc(C#Cc3ccccc3)cc2F)C(=O)C[C@@]1(C)c1cnco1` [Example 35, (6S)-3-[2,6-Difluoro-4-(2-phenylethynyl)phenyl]-1,6-dimethyl-6-oxazol-5-yl-hexahydropyrimidine-2,4-dione], the Emax came out at 195% and the EC50 was found to be 90 nM.
For `CN1C(=O)N(c2c(F)cc(C#Cc3cccnc3)cc2F)C(=O)C[C@@]1(C)c1cnn(C)c1` [Example 24, (6S)-3-[2,6-Difluoro-4-[2-(3-pyridyl)ethynyl]phenyl]-1,6-dimethyl-6-(1-methylpyrazol-4-yl)hexahydropyrimidine-2,4-dione] the same measures were 141% and 39 nM.
Regarding `CN1C(=O)N(c2c(F)cc(C#Cc3ccccc3)cc2F)C(=O)C[C@@]1(C)c1ccsn1` [Example 38, (6S)-3-[2,6-Difluoro-4-(2-phenylethynyl)phenyl]-6-isothiazol-3-yl-1,6-dimethyl-hexahydropyrimidine-2,4-dione], the Emax is 152% and the EC50 is 39 nM.
On to `CN1C(=O)N(c2c(F)cc(C#Cc3ccccc3)cc2F)C(=O)C[C@@]1(C)c1ccns1` [Example 43, (6S)-3-[2,6-Difluoro-4-(2-phenylethynyl)phenyl]-6-isothiazol-5-yl-1,6-dimethyl-hexahydropyrimidine-2,4-dione], for which the Emax turned out to be 151% and the EC50 worked out at 67 nM.
Take `CN1C(=O)N(c2c(F)cc(C#Cc3cccc(F)c3F)cc2F)C(=O)C[C@@]1(C)c1cnn(C)c1` [Example 57, (6S)-3-[4-[2-(2,3-Difluorophenyl)ethynyl]-2,6-difluoro-phenyl]-1,6-dimethyl-6-(1-methylpyrazol-4-yl)hexahydropyrimidine-2,4-dione]: the Emax came to 143% and the EC50 stood at 97 nM.
For `CN1C(=O)N(c2c(F)cc(C#Cc3ccccc3)cc2F)C(=O)C[C@@]1(C)c1cn(C)cn1` [Example 2, (6S)-3-[2,6-Difluoro-4-(2-phenylethynyl)phenyl]-1,6-dimethyl-6-(1-methylimidazol-4-yl)hexahydropyrimidine-2,4-dione] the same measures were 109% and 121 nM.
For `CN1C(=O)N(c2c(F)cc(C#Cc3ccccc3)cc2F)C(=O)C[C@@]1(C)c1cn(C)c2ncccc12` [Example 9, (6S)-3-[2,6-Difluoro-4-(2-phenylethynyl)phenyl]-1,6-dimethyl-6-(1-methylpyrrolo[2,3-b]pyridin-3-yl)hexahydropyrimidine-2,4-dione] the same measures were 155% and 81 nM.
For `CC[C@@]1(c2ccn(C)n2)CC(=O)N(c2c(F)cc(C#Cc3ccccc3)cc2F)C(=O)N1C` [Example 27, (6S)-3-[2,6-Difluoro-4-(2-phenylethynyl)phenyl]-6-ethyl-1-methyl-6-(1-methylpyrazol-3-yl)hexahydropyrimidine-2,4-dione] the same measures were 143% and 83 nM.
